Where only a bound is given, the exact number is not on record here.

Here are results for 39 molecules from US20250228835A1, “PYRIDINYLOXYPYRIDINES AND RELATED COMPOUNDS AND THEIR USE IN TREATING MEDICAL CONDITIONS” (Rectify Pharmaceuticals, Inc., priority 2024, published 2025).

What all share (type): cell-based
In one test the target is T1, ABCC6 WT (Homo sapiens, UniProt O95255).
T1 construct: expressed in transfected cells; host or cells: HEK-293 (transient, Lipofectamine 2000)
Kind of test: ABCC6 WT assay: HiBit protein expression. The following applies: HEK-293 cells transiently expressing HiBit-tagged ABCC6 WT; 24 h treatment; top concentration 20 μM; read-out: ABCC6 WT EC50, Emax. In a few lines:
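HEK-293 cells transiently transfected with HiBit-tagged human ABCC6 WT cDNA, seeded 24 h post-transfection, treated 24 h at 37° C with ten 2-fold doses (top 20 μM final, 0.15% DMSO). HiBit lytic luminescence reports protein expression; Emax and EC50 derived.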
In general terms: HiBiT is a short tag that completes a luciferase, so light tracks the accessible tagged protein.

The target of the next test is T2, ABCB4 WT (Homo sapiens, UniProt P21439).
T2 construct: expressed in transfected cells
Description: ABCB4 WT assay: HiBit protein expression. The following applies: HEK-293 cells stably expressing HiBit-tagged ABCB4 WT; 24 h treatment; top concentration 30 μM; read-out: ABCB4 WT EC50, Emax. In a few lines:
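HEK-293 cells stably expressing HiBit-tagged human ABCB4 WT, treated 24 h at 37 °C with 11-dose 3-fold dilutions, top final 30 μM in 0.3% DMSO. HiBit lytic reagent luminescence read after 1 h at 25 °C; Emax and EC50 derived.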

In the next test the target is T3, ABCA4 P1380L (Homo sapiens, UniProt P78363, P1380L).
T3 construct: expressed in transfected cells
Kind of test: A4 correction dose-response assay: ABCA4 P1380L HiBit protein expression. The settings on record: HEK-293 cells stably expressing HiBit-tagged ABCA4 P1380L; 24 h treatment; top concentration 30 μM; read-out: ABCA4 P1380L EC50, Emax. In a few lines: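 Cells transfected with HiBit-tagged human ABCA4 P1380L cDNA were treated for 24 h at 37°C with an eleven-point dilution series (top final 30 μM, 0.3% DMSO).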

T2 sequence (P21439 whole entry): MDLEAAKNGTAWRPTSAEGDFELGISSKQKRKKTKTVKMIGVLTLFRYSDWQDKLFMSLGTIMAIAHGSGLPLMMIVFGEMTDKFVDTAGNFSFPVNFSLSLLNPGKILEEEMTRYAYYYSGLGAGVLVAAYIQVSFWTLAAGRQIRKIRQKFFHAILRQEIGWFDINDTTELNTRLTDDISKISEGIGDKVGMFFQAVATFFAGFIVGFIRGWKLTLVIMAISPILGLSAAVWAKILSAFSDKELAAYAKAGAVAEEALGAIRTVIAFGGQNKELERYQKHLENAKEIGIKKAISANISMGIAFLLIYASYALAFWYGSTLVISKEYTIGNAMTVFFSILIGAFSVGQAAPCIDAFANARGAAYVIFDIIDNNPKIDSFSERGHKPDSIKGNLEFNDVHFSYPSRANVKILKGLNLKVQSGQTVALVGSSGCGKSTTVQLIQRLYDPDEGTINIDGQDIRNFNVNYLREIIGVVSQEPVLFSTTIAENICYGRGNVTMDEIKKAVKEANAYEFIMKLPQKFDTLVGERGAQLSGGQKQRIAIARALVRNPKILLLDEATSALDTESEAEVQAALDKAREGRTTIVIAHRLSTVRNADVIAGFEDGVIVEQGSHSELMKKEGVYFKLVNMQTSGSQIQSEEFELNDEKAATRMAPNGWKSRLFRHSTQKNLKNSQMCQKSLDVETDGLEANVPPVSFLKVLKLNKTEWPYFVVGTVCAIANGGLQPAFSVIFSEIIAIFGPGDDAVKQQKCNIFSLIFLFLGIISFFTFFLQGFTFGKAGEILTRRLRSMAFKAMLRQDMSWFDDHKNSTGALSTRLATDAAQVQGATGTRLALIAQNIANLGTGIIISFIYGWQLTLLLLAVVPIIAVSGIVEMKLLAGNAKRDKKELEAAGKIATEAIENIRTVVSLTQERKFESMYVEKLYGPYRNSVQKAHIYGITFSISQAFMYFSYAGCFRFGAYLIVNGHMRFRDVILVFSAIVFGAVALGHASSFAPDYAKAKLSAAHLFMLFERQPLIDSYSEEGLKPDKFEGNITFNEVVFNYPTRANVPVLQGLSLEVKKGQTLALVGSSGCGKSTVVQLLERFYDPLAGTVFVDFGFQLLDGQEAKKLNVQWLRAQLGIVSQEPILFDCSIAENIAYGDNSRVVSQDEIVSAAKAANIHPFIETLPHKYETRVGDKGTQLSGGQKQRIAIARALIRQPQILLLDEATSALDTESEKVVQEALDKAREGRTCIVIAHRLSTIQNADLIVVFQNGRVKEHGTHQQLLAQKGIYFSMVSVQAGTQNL
T1 sequence (O95255 whole entry): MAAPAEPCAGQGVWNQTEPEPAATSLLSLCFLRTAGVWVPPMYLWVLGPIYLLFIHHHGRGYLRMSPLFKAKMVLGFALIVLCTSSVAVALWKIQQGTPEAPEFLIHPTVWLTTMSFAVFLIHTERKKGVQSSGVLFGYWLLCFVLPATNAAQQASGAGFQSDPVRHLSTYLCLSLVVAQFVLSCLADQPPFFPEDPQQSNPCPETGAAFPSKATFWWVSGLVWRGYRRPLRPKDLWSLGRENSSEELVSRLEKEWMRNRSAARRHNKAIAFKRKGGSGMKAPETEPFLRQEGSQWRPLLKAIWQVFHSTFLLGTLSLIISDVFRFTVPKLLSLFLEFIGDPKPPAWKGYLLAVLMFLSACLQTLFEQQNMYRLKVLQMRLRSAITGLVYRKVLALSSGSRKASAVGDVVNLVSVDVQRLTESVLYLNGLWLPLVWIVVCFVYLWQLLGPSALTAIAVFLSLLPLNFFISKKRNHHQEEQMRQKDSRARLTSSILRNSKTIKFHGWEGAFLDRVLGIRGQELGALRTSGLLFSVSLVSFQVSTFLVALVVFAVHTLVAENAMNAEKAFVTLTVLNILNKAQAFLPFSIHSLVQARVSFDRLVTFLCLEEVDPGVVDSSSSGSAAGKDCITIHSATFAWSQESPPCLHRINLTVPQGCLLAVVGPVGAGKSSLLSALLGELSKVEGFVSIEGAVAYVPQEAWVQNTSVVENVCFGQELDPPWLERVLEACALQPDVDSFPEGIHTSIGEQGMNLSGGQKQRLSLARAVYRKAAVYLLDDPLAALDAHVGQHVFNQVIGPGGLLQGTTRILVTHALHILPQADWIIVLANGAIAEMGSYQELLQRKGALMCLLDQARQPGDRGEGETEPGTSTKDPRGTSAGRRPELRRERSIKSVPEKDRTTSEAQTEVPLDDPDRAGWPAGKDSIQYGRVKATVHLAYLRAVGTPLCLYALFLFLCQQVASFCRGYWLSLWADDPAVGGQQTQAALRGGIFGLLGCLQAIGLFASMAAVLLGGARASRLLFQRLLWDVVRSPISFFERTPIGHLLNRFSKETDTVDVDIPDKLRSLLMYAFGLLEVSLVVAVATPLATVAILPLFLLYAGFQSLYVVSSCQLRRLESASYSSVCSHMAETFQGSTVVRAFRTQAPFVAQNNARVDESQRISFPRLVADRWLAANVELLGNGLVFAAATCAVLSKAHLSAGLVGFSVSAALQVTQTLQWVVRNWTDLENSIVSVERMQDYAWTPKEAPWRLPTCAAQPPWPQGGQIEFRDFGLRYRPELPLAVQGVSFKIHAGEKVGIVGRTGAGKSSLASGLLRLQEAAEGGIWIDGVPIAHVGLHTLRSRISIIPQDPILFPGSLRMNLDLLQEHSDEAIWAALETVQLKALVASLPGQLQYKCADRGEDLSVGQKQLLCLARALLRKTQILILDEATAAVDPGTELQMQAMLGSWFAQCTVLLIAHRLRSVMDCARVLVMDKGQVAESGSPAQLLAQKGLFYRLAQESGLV
T3 sequence (P78363 whole entry P1380L): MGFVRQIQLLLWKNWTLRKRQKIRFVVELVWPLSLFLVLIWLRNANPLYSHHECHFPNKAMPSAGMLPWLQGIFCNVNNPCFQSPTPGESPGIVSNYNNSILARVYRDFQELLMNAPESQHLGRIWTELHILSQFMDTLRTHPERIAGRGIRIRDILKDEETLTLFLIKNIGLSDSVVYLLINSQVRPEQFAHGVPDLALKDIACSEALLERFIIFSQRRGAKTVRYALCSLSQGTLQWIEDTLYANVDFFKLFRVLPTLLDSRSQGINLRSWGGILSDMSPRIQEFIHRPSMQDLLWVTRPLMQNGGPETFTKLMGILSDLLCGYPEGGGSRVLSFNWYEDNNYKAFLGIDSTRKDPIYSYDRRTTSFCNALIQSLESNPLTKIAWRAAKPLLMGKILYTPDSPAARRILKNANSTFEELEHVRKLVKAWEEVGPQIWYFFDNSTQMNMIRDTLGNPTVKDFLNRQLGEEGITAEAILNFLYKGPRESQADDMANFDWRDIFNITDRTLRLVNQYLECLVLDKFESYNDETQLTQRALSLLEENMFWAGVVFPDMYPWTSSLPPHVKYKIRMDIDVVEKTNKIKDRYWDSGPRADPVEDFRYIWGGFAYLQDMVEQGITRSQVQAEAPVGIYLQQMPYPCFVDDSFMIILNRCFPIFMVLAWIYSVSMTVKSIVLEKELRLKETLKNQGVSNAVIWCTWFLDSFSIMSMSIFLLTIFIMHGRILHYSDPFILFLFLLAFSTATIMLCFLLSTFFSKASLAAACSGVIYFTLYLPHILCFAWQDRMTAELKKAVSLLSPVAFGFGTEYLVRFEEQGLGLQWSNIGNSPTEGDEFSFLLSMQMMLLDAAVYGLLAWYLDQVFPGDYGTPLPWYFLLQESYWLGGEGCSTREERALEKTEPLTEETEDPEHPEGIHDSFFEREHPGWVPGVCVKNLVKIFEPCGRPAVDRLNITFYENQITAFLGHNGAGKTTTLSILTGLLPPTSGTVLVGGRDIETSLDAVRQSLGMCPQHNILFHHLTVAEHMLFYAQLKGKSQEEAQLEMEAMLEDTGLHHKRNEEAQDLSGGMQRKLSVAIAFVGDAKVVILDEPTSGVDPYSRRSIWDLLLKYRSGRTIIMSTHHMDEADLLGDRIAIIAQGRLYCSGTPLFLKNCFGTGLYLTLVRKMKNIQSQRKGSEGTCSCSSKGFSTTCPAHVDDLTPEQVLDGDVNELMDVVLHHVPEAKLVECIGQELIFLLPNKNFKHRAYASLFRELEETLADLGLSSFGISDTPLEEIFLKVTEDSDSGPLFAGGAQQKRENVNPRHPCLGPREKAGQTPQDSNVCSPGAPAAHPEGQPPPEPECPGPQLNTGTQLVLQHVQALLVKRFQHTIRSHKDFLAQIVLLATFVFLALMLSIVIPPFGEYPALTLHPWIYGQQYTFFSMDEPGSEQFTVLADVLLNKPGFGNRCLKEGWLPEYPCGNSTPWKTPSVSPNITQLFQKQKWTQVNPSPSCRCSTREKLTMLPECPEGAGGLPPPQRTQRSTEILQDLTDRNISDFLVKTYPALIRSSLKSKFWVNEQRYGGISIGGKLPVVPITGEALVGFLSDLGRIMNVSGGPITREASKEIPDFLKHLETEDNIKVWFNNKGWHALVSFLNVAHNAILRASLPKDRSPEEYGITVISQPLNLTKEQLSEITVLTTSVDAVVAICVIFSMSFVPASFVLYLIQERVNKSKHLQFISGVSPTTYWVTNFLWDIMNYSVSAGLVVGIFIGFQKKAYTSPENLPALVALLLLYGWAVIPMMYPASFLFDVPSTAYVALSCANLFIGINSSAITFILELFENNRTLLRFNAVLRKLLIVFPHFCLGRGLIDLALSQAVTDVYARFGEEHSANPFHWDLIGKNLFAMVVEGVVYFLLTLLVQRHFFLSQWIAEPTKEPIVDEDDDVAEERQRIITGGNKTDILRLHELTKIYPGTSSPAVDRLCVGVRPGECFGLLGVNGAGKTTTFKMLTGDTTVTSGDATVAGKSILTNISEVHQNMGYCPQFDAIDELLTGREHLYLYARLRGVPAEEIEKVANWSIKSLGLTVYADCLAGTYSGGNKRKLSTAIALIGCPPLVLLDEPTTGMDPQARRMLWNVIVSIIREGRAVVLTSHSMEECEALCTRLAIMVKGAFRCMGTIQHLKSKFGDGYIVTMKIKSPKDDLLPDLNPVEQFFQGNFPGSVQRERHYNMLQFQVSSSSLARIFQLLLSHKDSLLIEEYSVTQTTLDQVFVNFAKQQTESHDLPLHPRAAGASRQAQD

Turning to `Cc1cc(C)c(Oc2nc(-c3cncc(Cl)c3)ccc2S(=O)(=O)NC(c2ccccn2)C(F)(F)F)c(C)c1` (single isomer, unassigned) [Compound I-79], the EC50 (usually the concentration giving half of the maximal effect) at ABCC6 WT is 1 to 10 µM; at ABCB4 WT, no less than 25 µM; on ABCA4 P1380L, less than 25 µM.

Regarding `Cc1cc(C)c(Oc2nc(-c3cncc(Cl)c3)ccc2S(=O)(=O)NC(c2ccccn2)C(F)(F)F)c(C)c1` (single isomer, unassigned) [Compound I-80], the concentration giving a half-maximal response (EC50) at ABCC6 WT was no less than 25 µM; at ABCB4 WT it was no less than 25 µM; on ABCA4 P1380L it was greater than 25 µM.

As to `Cc1cc(C)c(Oc2nc(-c3cncc(C(N)=O)c3)ccc2NS(C)(=O)=O)c(C2CC2)n1` [Compound I-1], the EC50 on ABCC6 WT is less than 1 µM; at ABCB4 WT, no less than 25 µM; at ABCA4 P1380L, less than 1 µM.

For the molecule `Cc1cc(C)c(Oc2nc(-c3cn[nH]c3)ccc2NS(C)(=O)=O)c(C2CC2)c1` [Compound I-2], the EC50 was 10 to 25 µM at ABCC6 WT, no less than 25 µM on ABCB4 WT and greater than 25 µM on ABCA4 P1380L.

As for `Cc1ccc(Oc2nc(-c3cncc(C#N)c3)ccc2NS(C)(=O)=O)c(C)n1` [Compound I-3], the EC50 on ABCC6 WT, on ABCB4 WT and at ABCA4 P1380L was less than 1 µM in each case.

With `Cc1cc(C)c(Oc2nc(-c3cncc(Cl)c3)ccc2N(C2CC2)S(C)(=O)=O)c(C)c1` [Compound I-42], the EC50 is 1 to 10 µM at ABCC6 WT, no less than 25 µM at ABCB4 WT and 1 to 10 µM on ABCA4 P1380L.

Regarding `Cc1cc(C)c(Oc2nc(N3CC4(C3)CN(S(=O)(=O)C3CC3)C4)ccc2NS(C)(=O)=O)c(C)c1` [Compound I-43], the EC50 at ABCC6 WT is no less than 25 µM; at ABCB4 WT, no less than 25 µM; at ABCA4 P1380L, greater than 25 µM.

For the molecule `Cc1cc(C)c(Oc2nc(N3CCN(S(=O)(=O)C4CC4)CC3)ccc2NS(C)(=O)=O)c(C)c1` [Compound I-44], the half-maximal effective concentration (EC50) at ABCC6 WT was 1 to 10 µM; at ABCB4 WT it was no less than 25 µM; on ABCA4 P1380L, 10 to 25 µM.

Take `Cc1cc(C)c(Oc2nc(-c3ccc(C#N)nc3)ccc2NS(C)(=O)=O)c(C)c1` [Compound I-45]: the EC50 was less than 1 µM at ABCC6 WT, no less than 25 µM on ABCB4 WT and less than 1 µM at ABCA4 P1380L.

For `Cc1cc(C)c(Oc2nc(-c3cncc(Cl)c3)ccc2NS(C)(=O)=O)c(C)n1` [Compound I-46], the EC50 is less than 1 µM on ABCC6 WT, less than 25 µM at ABCB4 WT and less than 1 µM at ABCA4 P1380L.

For `Cc1cc(C)c(Oc2nc(N3CCN(C(=O)C4CC4)CC3)ccc2NS(C)(=O)=O)c(C)c1` [Compound I-47], the EC50 at ABCC6 WT was 1 to 10 µM; at ABCB4 WT, less than 1 µM; at ABCA4 P1380L, greater than 25 µM.

For the molecule `Cc1cc(C)c(Oc2nc(-c3cncc(Cl)c3)ccc2N(C)S(C)(=O)=O)c(C)c1` [Compound I-48], the figures for the concentration giving a half-maximal response (EC50) on ABCC6 WT, on ABCB4 WT and on ABCA4 P1380L were less than 1 µM, less than 1 µM and greater than 25 µM, respectively.

As for `Cc1cc(C)c(Oc2nc(-c3cncc(Cl)c3)ccc2NS(=O)(=O)C2CC2)c(C)c1` [Compound I-49], the EC50 on ABCC6 WT is less than 1 µM; at ABCB4 WT, less than 1 µM; at ABCA4 P1380L it was greater than 25 µM.

Turning to `CC(=O)NC1CN(c2ccc(NS(=O)(=O)c3cccnc3)c(Oc3c(C)cc(C)cc3C3CC3)n2)C1` [Compound I-50], the EC50 at ABCC6 WT was less than 25 µM; on ABCB4 WT it was 1 to 10 µM; at ABCA4 P1380L, greater than 25 µM.

As for `COC1CC(S(=O)(=O)Nc2ccc(-c3cncc(Cl)c3)nc2Oc2c(C)cc(C)cc2C)C1` (stereo not drawn) [Compound I-51], the EC50 on ABCC6 WT, at ABCB4 WT and on ABCA4 P1380L was less than 1 µM each time.

For the molecule `Cc1cc(C)c(Oc2nc(-c3cncc(Cl)c3)ccc2N(C)S(=O)(=O)c2cnn(C)c2)c(C2CC2)c1` [Compound I-52], the EC50 at ABCC6 WT is less than 1 µM; at ABCB4 WT it was 1 to 10 µM; on ABCA4 P1380L it was 1 to 10 µM.

Consider `Cc1cc(C)c(Oc2nc(-c3cncc(Cl)c3)ccc2N(C)S(=O)(=O)c2cccnc2)c(C2CC2)c1` [Compound I-53], for which the EC50 at ABCC6 WT is 1 to 10 µM; on ABCB4 WT, no less than 25 µM; at ABCA4 P1380L it was 1 to 10 µM.

For `Cc1cc(C)c(Oc2nc(-c3cncc(Cl)c3)ccc2NS(=O)(=O)c2cccnc2)c(C2CC2)c1` [Compound I-54], the EC50 is less than 1 µM on ABCC6 WT, no less than 25 µM on ABCB4 WT and less than 25 µM at ABCA4 P1380L.

Consider `Cc1cc(C)c(Oc2nc(-c3cncc(Cl)c3)ccc2NS(C)(=O)=O)c(C)c1` [Compound I-55], for which the EC50 was less than 1 µM on ABCC6 WT, no less than 25 µM at ABCB4 WT and greater than 25 µM at ABCA4 P1380L.

For the molecule `Cc1cc(C)c(Oc2cc(-c3cncc(Cl)c3)ncc2NS(C)(=O)=O)c(C)c1` [Compound I-56], the EC50 at ABCC6 WT is less than 1 µM; on ABCB4 WT, no less than 25 µM; at ABCA4 P1380L it was greater than 25 µM.

Take `Cc1cc(C)c(Oc2nc(-c3cncc(Cl)c3)ccc2NS(C)(=O)=O)c(C2CC2)c1` [Compound I-57]: the EC50 at ABCC6 WT is less than 1 µM; on ABCB4 WT, less than 25 µM; on ABCA4 P1380L, 1 to 10 µM.

Consider `Cc1cc(C)c(Oc2nc(-c3cncc(Cl)c3)ccc2NS(=O)(=O)c2cnn(C)c2)c(C2CC2)c1` [Compound I-58], for which the results for the EC50 on ABCC6 WT, on ABCB4 WT and on ABCA4 P1380L were less than 25 µM, no less than 25 µM and greater than 25 µM, respectively.

Consider `Cc1cc(C)c(Oc2cc(-c3cncc(Cl)c3)cnc2N(C)S(=O)(=O)c2cnn(C)c2)c(C)c1` [Compound I-59], for which the EC50 is no less than 25 µM at ABCC6 WT, no less than 25 µM at ABCB4 WT and 1 to 10 µM on ABCA4 P1380L.

With `Cc1cc(C)c(Oc2cc(-c3cncc(Cl)c3)cnc2NS(C)(=O)=O)c(C)c1` [Compound I-60], the EC50 was 1 to 10 µM at ABCC6 WT, no less than 25 µM on ABCB4 WT and less than 25 µM at ABCA4 P1380L.

Turning to `Cc1cc(C)c(Oc2cc(-c3cncc(Cl)c3)cnc2NS(=O)(=O)c2cnn(C)c2)c(C)c1` [Compound I-61], the EC50 on ABCC6 WT is 1 to 10 µM; on ABCB4 WT, no less than 25 µM; on ABCA4 P1380L, greater than 25 µM.

Take `Cc1cc(C)c(Oc2nc(-c3cncc(Cl)c3)ccc2NS(=O)(=O)Cc2ccccn2)c(C)c1` [Compound I-62]: the EC50 is no less than 25 µM at ABCC6 WT, no less than 25 µM at ABCB4 WT and greater than 25 µM at ABCA4 P1380L.

For `COc1ccc2nc[nH]c2c1S(=O)(=O)Nc1ccc(-c2cncc(Cl)c2)nc1Oc1c(C)cc(C)cc1C` [Compound I-63], the 50% effective concentration (EC50) was less than 1 µM at ABCC6 WT, no less than 25 µM on ABCB4 WT and 10 to 25 µM on ABCA4 P1380L.

In the case of `Cc1cc(C)c(Oc2nc(-c3cncc(Cl)c3)ccc2N(C)S(=O)(=O)Cc2ccccc2)c(C)c1` [Compound I-64], the values for the EC50 on ABCC6 WT, at ABCB4 WT and on ABCA4 P1380L were less than 25 µM, less than 25 µM and 1 to 10 µM, respectively.

In the case of `Cc1cc(C)c(Oc2nc(-c3cncc(Cl)c3)ccc2NS(=O)(=O)Cc2ccccc2)c(C)c1` [Compound I-65], the EC50 on ABCC6 WT is no less than 25 µM; at ABCB4 WT, no less than 25 µM; at ABCA4 P1380L it was greater than 25 µM.

As to `Cc1cc(C)c(Oc2nc(-c3cncc(Cl)c3)ccc2N2CCCCS2(=O)=O)c(C)c1` [Compound I-66], the figures for the EC50 on ABCC6 WT, at ABCB4 WT and on ABCA4 P1380L were 1 to 10 µM, no less than 25 µM and greater than 25 µM, respectively.

Turning to `Cc1cc(C)c(Oc2nc(-c3cncc(Cl)c3)ccc2N2CCCS2(=O)=O)c(C)c1` [Compound I-67], the EC50 at ABCC6 WT is 1 to 10 µM; on ABCB4 WT it was 1 to 10 µM; at ABCA4 P1380L it was greater than 25 µM.

For the molecule `Cc1cc(C)c(Oc2nc(-c3cncc(Cl)c3)ccc2NS(=O)(=O)C(C)(C)C)c(C)c1` [Compound I-68], the EC50 at ABCC6 WT is no less than 25 µM; on ABCB4 WT, no less than 25 µM; at ABCA4 P1380L, greater than 25 µM.

As for `Cc1cc(C)c(Oc2nc(-c3cncc(Cl)c3)ccc2N(C)S(=O)(=O)c2cccnc2)c(C)c1` [Compound I-69], the EC50 is less than 1 µM at ABCC6 WT, less than 25 µM on ABCB4 WT and 1 to 10 µM on ABCA4 P1380L.

On to `Cc1cc(C)c(Oc2nc(-c3cncc(Cl)c3)ccc2N(C)S(=O)(=O)c2cnn(C)c2)c(C)c1` [Compound I-70], for which the results for the EC50 on ABCC6 WT, on ABCB4 WT and at ABCA4 P1380L were less than 1 µM, no less than 25 µM and greater than 25 µM, respectively.

With `Cc1cc(C)c(Oc2nc(-c3cncc(Cl)c3)ccc2NS(=O)(=O)c2cccnc2)c(C)c1` [Compound I-71], the EC50 on ABCC6 WT was less than 1 µM; on ABCB4 WT, no less than 25 µM; on ABCA4 P1380L, greater than 25 µM.

Turning to `Cc1cc(C)c(Oc2nc(-c3cncc(Cl)c3)ccc2NS(=O)(=O)c2cnn(C)c2)c(C)c1` [Compound I-72], the EC50 is 1 to 10 µM at ABCC6 WT, no less than 25 µM on ABCB4 WT and greater than 25 µM on ABCA4 P1380L.

Consider `CNS(=O)(=O)c1ccc(N2CCN(C(=O)C3CC3)CC2)nc1Oc1c(C)cc(C)cc1C` [Compound I-73], for which the 50% effective concentration (EC50) was 1 to 10 µM at ABCC6 WT, less than 1 µM on ABCB4 WT and less than 1 µM at ABCA4 P1380L.

In the case of `COC1CC(NS(=O)(=O)c2ccc(-c3cncc(Cl)c3)nc2Oc2c(C)cc(C)cc2C2CC2)C1` (stereo not drawn) [Compound I-74], the EC50 on ABCC6 WT, on ABCB4 WT and at ABCA4 P1380L was 1 to 10 µM throughout.

Regarding `Cc1cc(C)c(Oc2nc(-c3cncc(Cl)c3)ccc2S(=O)(=O)Nc2cnn(C)c2)c(C2CC2)c1` [Compound I-75], the values for the EC50 on ABCC6 WT, at ABCB4 WT and on ABCA4 P1380L were less than 25 µM, 1 to 10 µM and 1 to 10 µM, respectively.
